Laboratory results as given in PubChem BioAssay AID651620 (Broad Institute, 2012).

Test system: non-replicating M. tuberculosis, luciferase reporter
Assay: inhibitors of non-replicating M. tuberculosis, dose response, luciferase, dry powder (AID 651620)

[N-]=[N+]=NCCOCCNC(=O)CCCn1cc(CS(=O)c2nnc(-c3ccc(F)cc3)o2)nn1 (stereo unspecified)
IC90: 125 µM
